From patent US4952405A, “Method of treating M. avium infection” (Liposome Technology, Inc., priority 1988, dated 1990)
“Also recorded” adds a separate entry of the source.

What was measured:
[1] = test system: MAC 101 serotype 1; assay: MIC against MAC 101 serotype 1 in culture; type: cell-based, Mycobacterium avium complex; details: strain 101 serotype 1, bacterial culture
Experimental: Among the aminoglycosides, amikacin has been used for treating MAC infection due to its relatively low minimum inhibitory concentration, particularly in the case of certain MAC serotypes. […] Gentamicin would therefore not be expected to be effective in vivo since the toxic level of gentamicin is about 12 μg/ml in the blood, and therefore it is not possible to maintain patients at the inhibitory dose for sustained therapeutic periods. It would be desirable to treat M. avium infection in humans with gentamicin, however, because of the relatively low cost of the drug.

[2] = Renal clearance / drug excretion, free vs liposomal; type: in vivo; details: after 4 days, mice
Experimental: To examine the difference in drug clearance between free aminoglycoside and an aminoglycoside-liposome composition, free amikacin and amikacin-liposomes were administered to groups of mice, as above, and the amount of drug excreted by the animals over a several-day period was examined.

[3] = test system: MAC 101 (serotype 1); assay: Efficacy against MAC infection in blood of beige mice; type: in vivo, Mycobacterium avium complex; beige mice; details: for effect on viable MAC units in blood: 0.2 mg and 1.0 mg doses, five I.V. injections, day 7 to 22, FIGS. 2A, 2B; for effect on MAC in the blood: higher dose (1.0 mg)
Experimental: (§1) Briefly, the animals were infected by I.V. injection of MAC, then treated with control, gentamicin, or gentamicin-liposome formulations 7 days later, with a total of five intravenous injections being given over a 9-day treatment period. The level of viable MAC units (cfu's) in the blood was examined at day 7 (before treatment), day 16 (immediately after the five treatment doses) and day 22. […] For both aminoglycoside drugs, dosages of 0.2 mg and 1.0 mg drug were given.
(§2) Immune deficient "beige" mice (Young, 1986) were infected intravenously with 5×10^6 of MAC 101 (serotype 1) on day 0. After 7 days, blood samples were drawn to quantitate the organisms in the blood prior to treatment. […] On the 16th day, the treated mice were bled and the number of viable MAC units in blood was determined. A week later (day 22), the mice were bled again and sacrificed. The liver and spleen were homogenized and the viable MAC were cultured in 7H10 agar for 10 days for colony counts.

[4] = test system: MAC 101 serotype 1; details: cited from earlier work
[5] = test system: serotype 4 strain of MAC; details: Yajko; cited from earlier work
[6] = test system: MAC 101 (serotype 1); assay: Efficacy against MAC infection in liver and spleen of beige mice; type: in vivo, Mycobacterium avium complex; beige mice; details: for bacteriocidal effect in RES organs (liver, spleen), words: day 22, FIGS. 3A, 3B
Experimental: as §1, §2

[7] = Tolerability of higher gentamicin dose in MAC-infected mice; type: in vivo; details: about 4 mg per 20 gm mouse
Text: This was confirmed by attempting to further reduce MAC infection by administering higher gentamicin dose.

[8] = cited from earlier work

| Compound | relative activity / MIC in MAC culture, amikacin vs gentamicin [1] | drug excreted ([2]; 5760 min) | dose excreted at 96 h ([2]; mouse, in vivo, iv) [%] | effect on viable MAC units in blood [3] | effect on viable MAC units in blood ([3]; listed as free amikacin) | effect on MAC in the blood [3] | minimum inhibitory concentration (MIC) [4] [µg/mL] | MIC [5] [µg/mL] | effect on viable MAC units in blood ([3]; listed as Free gentamicin) | effect on viable MAC units in blood ([3]; listed as free gentamicin) | effect on MAC in the spleen ([6]; both doses) | bacteriocidal effect in RES organs (liver, spleen), words ([6]; listed as Free gentamicin) | bacteriocidal effect in RES organs (liver, spleen), words ([6]; listed as free gentamicin) | effect on MAC in the liver ([6]; high dose (1.0 mg/kg as printed)) | effect on MAC in the liver ([6]; low dose (0.2 mg/kg as printed)) | tolerability / animal deaths [7] | toxic level in the blood [8] |
| --- | --- | --- | --- | --- | --- | --- | --- | --- | --- | --- | --- | --- | --- | --- | --- | --- | --- |
| NCC[C@H](O)C(=O)N[C@@H]1C[C@H](N)[C@@H](O[C@H]2O[C@H](CN)[C@@H](O)[C@H](O)[C@H]2O)[C@H](O)[C@H]1O[C@H]1O[C@H](CO)[C@@H](O)[C@H](N)[C@H]1O [amikacin] | nearly an order of magnitude less than that of gentamicin | about 80% | ~80 | largely ineffective | Qualitatively similar results | significant inhibitory effect on MAC in the blood | 2 to 4 | 16 to 32 |  |  |  |  |  |  |  |  |  |
| gentamicin | substantially less active than free amikacin |  |  |  |  | not gentamicin | 36 | 16 to 32 | no measurable activity against MAC in the bloodstream | no appreciable inhibitory effect; also recorded: No appreciable inhibition; also recorded: largely ineffective | moderate killing | only modest activity against infection in RES organs | about the same degree of bacteriocidal action as free amikacin | moderate killing activity | inhibitory effect on the growth of MAC | large percentage of animal deaths | about 12 μg/ml |
